Assay results from PubChem BioAssay (NCI).
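Each compound was tested at five concentrations against cells in 96-well plates for 48 hours. GI50 is the concentration that inhibits growth by half. TGI: concentration producing complete growth inhibition.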

Legend:
Assay in all cases: NCI-60 cell line screen, 48 h
A549 NSCLC = test system: A549 NSCLC
EKVX NSCLC = test system: EKVX NSCLC
HS 578T breast = test system: HS 578T breast
HT29 colon = test system: HT29 colon
NCI-H522 lung = test system: NCI-H522 lung
NCI/ADR-RES ovarian = test system: NCI/ADR-RES ovarian
OVCAR-3 ovarian = test system: OVCAR-3 ovarian
RPMI-8226 leukemia = test system: RPMI-8226 leukemia
SF-268 CNS = test system: SF-268 CNS
SF-295 CNS = test system: SF-295 CNS
TK-10 renal = test system: TK-10 renal
U251 CNS = test system: U251 CNS
UACC-62 melanoma = test system: UACC-62 melanoma

Row | SMILES | TGI (A549 NSCLC) | TGI (EKVX NSCLC) | TGI (HS 578T breast) | TGI (HT29 colon) | TGI (NCI-H522 lung) | TGI (NCI/ADR-RES ovarian) | TGI (OVCAR-3 ovarian) | TGI (RPMI-8226 leukemia) | TGI (SF-268 CNS) | TGI (SF-295 CNS) | TGI (TK-10 renal) | TGI (U251 CNS) | TGI (UACC-62 melanoma) | GI50 (A549 NSCLC) | GI50 (EKVX NSCLC) | GI50 (HT29 colon) | GI50 (SF-268 CNS) | GI50 (SF-295 CNS) | GI50 (U251 CNS)
1 | CC(C)C(NCc1c(O)ccc2c(-c3ccccc3)cc(=O)oc12)C(=O)O (centres undefined) | > 100 µM | > 100 µM | > 100 µM | > 100 µM | > 100 µM | > 100 µM | > 100 µM | > 100 µM | > 100 µM | > 100 µM | > 100 µM | > 100 µM | > 100 µM | – | – | – | – | – | –
2 | Cc1cc2c(cc1Cl)SC(NNc1ccc([N+](=O)[O-])cc1)=NS2(=O)=O | > 10 µM | > 10 µM | > 10 µM | > 10 µM | > 10 µM | > 10 µM | > 10 µM | > 10 µM | > 10 µM | > 10 µM | > 10 µM | > 10 µM | > 10 µM | – | – | – | – | – | –
3 | CCOC(=O)c1c(N2CCCC2)[nH]c(=O)c(C(c2cccs2)c2c(O)c(C(=O)OCC)c(N3CCCC3)[nH]c2=O)c1O | > 100 µM | > 100 µM | > 100 µM | > 100 µM | > 100 µM | > 100 µM | > 100 µM | > 100 µM | > 100 µM | > 100 µM | > 100 µM | > 100 µM | > 100 µM | – | – | – | – | – | –
4 | C=C(C)C12CC3CC/C(=N/O)C(C1)C3(N1CCOCC1)C/C2=N/O (centres undefined) | > 100 µM | > 100 µM | > 100 µM | > 100 µM | > 100 µM | > 100 µM | > 100 µM | > 100 µM | > 100 µM | > 100 µM | > 100 µM | > 100 µM | > 100 µM | – | – | – | – | – | –
5 | N#Cc1c(N2CCOCC2)[nH]c(=O)c(C(c2c(Cl)cccc2Cl)c2c(O)c(C#N)c(N3CCOCC3)[nH]c2=O)c1O | > 100 µM | 39 µM | 58.1 µM | 28.9 µM | 28.2 µM | > 100 µM | 30.4 µM | 60.8 µM | 51.1 µM | > 100 µM | 32.5 µM | 30.4 µM | 30.2 µM | – | – | – | – | – | –
6 | S=c1[nH]nc(NNc2ccccc2)n1Nc1ccccc1 | > 100 µM | > 100 µM | > 100 µM | > 100 µM | > 100 µM | > 100 µM | > 100 µM | > 100 µM | > 100 µM | > 100 µM | > 100 µM | > 83.9 µM | > 100 µM | – | – | – | – | – | –
7 | COc1ccc(C(=O)Nc2ccc3oc(-c4ccccc4)nc3c2)cc1 | > 100 µM | > 100 µM | > 100 µM | > 100 µM | > 100 µM | > 100 µM | > 100 µM | > 100 µM | > 100 µM | > 100 µM | > 100 µM | > 100 µM | > 100 µM | – | – | – | – | – | –
8 | CCOP(=O)(OCC)/C(C#N)=C/c1c[nH]c2ccccc12 | > 100 µM | > 100 µM | > 100 µM | > 100 µM | > 100 µM | > 100 µM | > 100 µM | > 100 µM | > 100 µM | > 100 µM | > 100 µM | > 100 µM | > 100 µM | – | – | – | – | – | –
9 | CC1OC(OC2C(Oc3cc(O)c4c(c3)O[C@H](c3ccc(O)cc3)CC4=O)OC(CO)C(O)C2O)C(O)C(O)C1O (some centres undefined) | > 100 µM | > 100 µM | > 100 µM | > 100 µM | > 100 µM | > 100 µM | > 100 µM | > 100 µM | > 100 µM | > 100 µM | > 100 µM | > 100 µM | > 100 µM | – | – | – | – | – | –
10 | CCN(CC)CCO/N=C1/C=C2CCC3C(CC[C@@]4(C)C3CC[C@]4(C)O)[C@@]2(C)CC1 (some centres undefined) | 45.9 µM | 42.9 µM | 33.7 µM | 5.35 µM | 6.07 µM | 7.48 µM | 13.6 µM | 15.2 µM | 31.2 µM | 8.29 µM | 45.1 µM | 11.2 µM | 8.57 µM | – | – | – | – | – | –
11 | CC1=C(C(=O)OC(C)C)C(c2ccccc2C(F)(F)F)C(C(=O)OC(CO[N+](=O)[O-])CO[N+](=O)[O-])=C(C)N1 (centres undefined) | 33 µM | 70.2 µM | 49.8 µM | 26.3 µM | 14.2 µM | 30.6 µM | 28.3 µM | > 100 µM | 38.7 µM | 21.8 µM | > 100 µM | 29 µM | 20.1 µM | – | – | – | – | – | –
12 | CC(=O)ON(C(C)=O)c1ccc(-c2nc3ccccc3s2)cc1C | > 100 µM | > 100 µM | > 100 µM | > 100 µM | > 100 µM | > 100 µM | > 100 µM | > 100 µM | > 100 µM | > 100 µM | > 100 µM | > 100 µM | > 100 µM | – | – | – | – | – | –
13 | C/C(=N\NC(=S)NCc1ccccc1)c1nc2ncccc2[nH]1 | > 100 µM | 8.51 µM | > 100 µM | 12.8 µM | 32 µM | 78.8 µM | 39.8 µM | 59.9 µM | 65.6 µM | 22.8 µM | 73.4 µM | 19.4 µM | 27.1 µM | – | – | – | – | – | –
14 | COc1ccc(N=[N+]([O-])c2ccc(OC)cc2)cc1 | > 100 µM | > 100 µM | > 100 µM | > 100 µM | > 100 µM | > 100 µM | > 100 µM | > 100 µM | > 100 µM | > 100 µM | > 100 µM | > 100 µM | > 100 µM | – | – | – | – | – | –
15 | Nc1nc(N)c2nc(CNc3ccc(C(=O)NC(CCCCNC(=O)c4ccccc4C(=O)O)C(=O)O)cc3)cnc2n1 (centres undefined) | > 100 µM | > 100 µM | > 100 µM | > 100 µM | > 100 µM | > 100 µM | > 100 µM | > 100 µM | > 100 µM | > 100 µM | > 100 µM | > 100 µM | > 100 µM | 0.00745 µM | 0.036 µM | 0.00566 µM | 0.00841 µM | 0.0191 µM | 0.0385 µM
16 | Cc1cc(-c2nc3cccc(F)c3s2)ccc1N | > 100 µM | > 100 µM | > 90.8 µM | > 100 µM | > 100 µM | > 100 µM | > 100 µM | > 100 µM | > 86 µM | > 100 µM | > 100 µM | > 100 µM | > 100 µM | – | – | – | – | – | –
